Columns and labels:
Assay type in all cases: in vivo
[1] = system: ducksalad (Heteranthera limosa); assay: Test B flooded paddy test; conditions: for Plant response rating, Flood, Ducksalad: 250 g ai/ha, flooded paddy test, visual rating on 0 to 100 scale (0 no effect, 100 complete control) after 13 to 15 days; for Plant response rating, Ducksalad: Flood (flooded paddy test), 13 to 15 days; for Ducksalad plant response rating: Flood, 31 g ai/ha, scale 0 to 100 (0 no effect, 100 complete control)
Procedure, shortened: (§1)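 Seedlings reaching 2 leaves are flooded 3 cm deep; test material is delivered to that water, which stays at the same depth. Plants remain in a greenhouse 13–15 days and are then scored by eye versus controls from 0 to 100.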

rice (Oryza sativa) = assay: Test B flooded paddy test; conditions: for Plant response rating, Flood, Rice: 250 g ai/ha, flooded paddy test, visual rating on 0 to 100 scale (0 no effect, 100 complete control) after 13 to 15 days; for Plant response rating, Rice: Flood (flooded paddy test), 13 to 15 days; for Rice plant response rating: Flood, 31 g ai/ha, scale 0 to 100 (0 no effect, 100 complete control)
Procedure, shortened: as §1

[2] = system: umbrella sedge (Cyperus difformis); assay: Test B flooded paddy test; conditions: for Plant response rating, Flood, Sedge, Umbrella: 250 g ai/ha, flooded paddy test, visual rating on 0 to 100 scale (0 no effect, 100 complete control) after 13 to 15 days; for Plant response rating, Sedge, Umbrella: Flood (flooded paddy test), 13 to 15 days; for Sedge, Umbrella plant response rating: Flood, 31 g ai/ha, scale 0 to 100 (0 no effect, 100 complete control)
Procedure, shortened: as §1

[3] = system: barnyardgrass (Echinochloa crus-galli); assay: Test B flooded paddy test; conditions: for Plant response rating, Flood, Barnyardgrass: 250 g ai/ha, flooded paddy test, visual rating on 0 to 100 scale (0 no effect, 100 complete control) after 13 to 15 days; for Plant response rating, Barnyardgrass: Flood (flooded paddy test), 13 to 15 days; for Barnyardgrass plant response rating: Flood, 31 g ai/ha, scale 0 to 100 (0 no effect, 100 complete control)
Procedure, shortened: as §1

[4] = system: large crabgrass (Digitaria sanguinalis); assay: Test A pre-/postemergence plant response; conditions: for Crabgrass, Large plant response rating: visual injury, 0 to 100 scale (0 no effect, 100 complete control), approx. ten days
Procedure, shortened: (§2)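 Approximately ten days after concurrent pre- and postemergence spraying in a greenhouse, plants were compared with untreated controls and rated visually for injury, 0 = no effect to 100 = complete control. Preemergence spray was directed onto loam/sand soil; postemergence targeted 1–2 leaf seedlings.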

[5] = system: velvetleaf (Abutilon theophrasti); assay: Test A pre-/postemergence plant response; conditions: for Velvetleaf plant response rating: visual injury, 0 to 100 scale (0 no effect, 100 complete control), approx. ten days
Procedure, shortened: as §2

corn (Zea mays) = assay: Test A pre-/postemergence plant response; conditions: for Corn plant response rating: visual injury, 0 to 100 scale (0 no effect, 100 complete control), approx. ten days
Procedure, shortened: as §2

[6] = system: wheat (Triticum aestivum); assay: Test A pre-/postemergence plant response; conditions: for Wheat plant response rating: visual injury, 0 to 100 scale (0 no effect, 100 complete control), approx. ten days
Procedure, shortened: as §2

[7] = system: morningglory (Ipomoea spp.); assay: Test A pre-/postemergence plant response; conditions: for Morningglory plant response rating: visual injury, 0 to 100 scale (0 no effect, 100 complete control), approx. ten days
Procedure, shortened: as §2

[8] = system: giant foxtail (Setaria faberii); assay: Test A pre-/postemergence plant response; conditions: for Foxtail, Giant plant response rating: visual injury, 0 to 100 scale (0 no effect, 100 complete control), approx. ten days
Procedure, shortened: as §2

[9] = system: barnyardgrass (Echinochloa crus-galli); assay: Test A pre-/postemergence plant response; conditions: for Barnyardgrass plant response rating: visual injury, 0 to 100 scale (0 no effect, 100 complete control), approx. ten days
Procedure, shortened: as §2

[10] = system: pigweed (Amaranthus retroflexus); assay: Test A pre-/postemergence plant response; conditions: for Pigweed plant response rating: visual injury, 0 to 100 scale (0 no effect, 100 complete control), approx. ten days
Procedure, shortened: as §2

[11] = 62 g ai/ha, scale of 0 to 100 where 0 is no effect and 100 is complete control
[12] = 125 g ai/ha, scale 0 to 100, 0 is no effect, 100 is complete control
[13] = Postemergence, 125 g ai/ha, 0 to 100 scale where 0 is no effect and 100 is complete control
[14] = Preemergence, 125 g ai/ha, 0 to 100 scale, 0 = no effect, 100 = complete control
[15] = Preemergence, 500 g ai/ha, 0 to 100 scale, 0 = no effect, 100 = complete control

SMILES: C#Cc1ccc(-c2ncc(C(=O)C3=C(O)CCCC3=O)c(=O)n2C2CCCCC2)cc1 [Compound 216]
- Plant response rating, Flood, Ducksalad [1]: 95
- Plant response rating, Ducksalad [1, 11]: 90
- Plant response rating, Ducksalad [1, 12]: 90
- Ducksalad plant response rating [1]: 50
- Plant response rating, Flood, Rice (rice (Oryza sativa)): 0
- Plant response rating, Rice (rice (Oryza sativa); [11]): 0
- Plant response rating, Rice (rice (Oryza sativa); [12]): 0
- Rice plant response rating (rice (Oryza sativa)): 0
- Plant response rating, Flood, Sedge, Umbrella [2]: 100
- Plant response rating, Sedge, Umbrella [2, 11]: 65
- Plant response rating, Sedge, Umbrella [2, 12]: 80
- Sedge, Umbrella plant response rating [2]: 0
- Plant response rating, Flood, Barnyardgrass [3]: 0
- Plant response rating, Barnyardgrass [3, 11]: 0
- Plant response rating, Barnyardgrass [3, 12]: 0
- Barnyardgrass plant response rating [3]: 0
- Plant response rating, Crabgrass, Large [4, 13]: 40
- Crabgrass, Large plant response rating ([4]; Postemergence, 500 g ai/ha): 80
- Plant response rating, Crabgrass, Large [4, 14]: 0
- Plant response rating, Crabgrass, Large [4, 15]: 80
- Plant response rating, Velvetleaf [5, 13]: 90
- Velvetleaf plant response rating ([5]; Postemergence, 500 g ai/ha): 100
- Plant response rating, Velvetleaf [5, 14]: 0
- Plant response rating, Velvetleaf [5, 15]: 30
- Plant response rating, Corn (corn (Zea mays); [13]): 0
- Corn plant response rating (corn (Zea mays); Postemergence, 500 g ai/ha): 0
- Plant response rating, Corn (corn (Zea mays); [14]): 0
- Plant response rating, Corn (corn (Zea mays); [15]): 20
- Plant response rating, Wheat [6, 13]: 20
- Wheat plant response rating ([6]; Postemergence, 500 g ai/ha): 30
- Plant response rating, Wheat [6, 14]: 0
- Plant response rating, Wheat [6, 15]: 0
- Plant response rating, Morningglory [7, 13]: 70
- Morningglory plant response rating ([7]; Postemergence, 500 g ai/ha): 90
- Plant response rating, Morningglory [7, 14]: 0
- Plant response rating, Morningglory [7, 15]: 30
- Plant response rating, Foxtail, Giant [8, 13]: 30
- Foxtail, Giant plant response rating ([8]; Postemergence, 500 g ai/ha): 70
- Plant response rating, Foxtail, Giant [8, 14]: 0
- Plant response rating, Foxtail, Giant [8, 15]: 60
- Plant response rating, Barnyardgrass [9, 13]: 10
- Barnyardgrass plant response rating ([9]; Postemergence, 500 g ai/ha): 90
- Plant response rating, Barnyardgrass [9, 14]: 0
- Plant response rating, Barnyardgrass [9, 15]: 20
- Plant response rating, Pigweed [10, 13]: 90
- Pigweed plant response rating ([10]; Postemergence, 500 g ai/ha): 90
- Plant response rating, Pigweed [10, 14]: 0
- Plant response rating, Pigweed [10, 15]: 50

SMILES: CCCn1c(-c2cccs2)ncc(C(=O)c2cnn(CC)c2O)c1=O [Compound 221]
- Plant response rating, Flood, Ducksalad [1]: 70
- Plant response rating, Ducksalad [1, 11]: 65
- Plant response rating, Ducksalad [1, 12]: 70
- Ducksalad plant response rating [1]: 20
- Plant response rating, Flood, Rice (rice (Oryza sativa)): 15
- Plant response rating, Rice (rice (Oryza sativa); [11]): 0
- Plant response rating, Rice (rice (Oryza sativa); [12]): 0
- Rice plant response rating (rice (Oryza sativa)): 0
- Plant response rating, Flood, Sedge, Umbrella [2]: 75
- Plant response rating, Sedge, Umbrella [2, 11]: 60
- Plant response rating, Sedge, Umbrella [2, 12]: 75
- Sedge, Umbrella plant response rating [2]: 0
- Plant response rating, Flood, Barnyardgrass [3]: 20
- Plant response rating, Barnyardgrass [3, 11]: 0
- Plant response rating, Barnyardgrass [3, 12]: 0
- Barnyardgrass plant response rating [3]: 0
- Plant response rating, Crabgrass, Large [4, 13]: 10
- Crabgrass, Large plant response rating ([4]; Postemergence, 500 g ai/ha): 20
- Plant response rating, Crabgrass, Large [4, 14]: 0
- Plant response rating, Crabgrass, Large [4, 15]: 10
- Plant response rating, Velvetleaf [5, 13]: 80
- Velvetleaf plant response rating ([5]; Postemergence, 500 g ai/ha): 80
- Plant response rating, Velvetleaf [5, 14]: 20
- Plant response rating, Velvetleaf [5, 15]: 30
- Plant response rating, Corn (corn (Zea mays); [13]): 0
- Corn plant response rating (corn (Zea mays); Postemergence, 500 g ai/ha): 20
- Plant response rating, Corn (corn (Zea mays); [14]): 0
- Plant response rating, Corn (corn (Zea mays); [15]): 0
- Plant response rating, Wheat [6, 13]: 0
- Wheat plant response rating ([6]; Postemergence, 500 g ai/ha): 0
- Plant response rating, Wheat [6, 14]: 0
- Plant response rating, Wheat [6, 15]: 0
- Plant response rating, Morningglory [7, 13]: 10
- Morningglory plant response rating ([7]; Postemergence, 500 g ai/ha): 20
- Plant response rating, Morningglory [7, 14]: 0
- Plant response rating, Morningglory [7, 15]: 0
- Plant response rating, Foxtail, Giant [8, 13]: 0
- Foxtail, Giant plant response rating ([8]; Postemergence, 500 g ai/ha): 10
- Plant response rating, Foxtail, Giant [8, 14]: 0
- Plant response rating, Foxtail, Giant [8, 15]: 10
- Plant response rating, Barnyardgrass [9, 13]: 10
- Barnyardgrass plant response rating ([9]; Postemergence, 500 g ai/ha): 20
- Plant response rating, Barnyardgrass [9, 14]: 0
- Plant response rating, Barnyardgrass [9, 15]: 0
- Plant response rating, Pigweed [10, 13]: 40
- Pigweed plant response rating ([10]; Postemergence, 500 g ai/ha): 70
- Plant response rating, Pigweed [10, 14]: 0
- Plant response rating, Pigweed [10, 15]: 60

— patent publication US8952024B2, “Herbicidal pyrimidone derivatives” (E I du Pont de Nemours and Company, priority 2009, dated 2015)
